Data taken from PubChem BioAssay (NCI).
“And” between values parts separate entries of the source, which are not always exact repeats. Identical values can stand only once.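 Dose response: 5 concentrations. Exposure: 48 h. Format: 96-well plates. Endpoint: linear interpolation; highest concentration if not reached. Here, GI50 denotes the concentration required for 50% inhibition of growth. TGI is the concentration that stops growth completely.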

Test system: MDA-MB-468 breast
Assay: DTP human tumour cell line panel, 48 h

Compound | GI50 | TGI
Cc1ccc(NC(=O)c2sc3nc(C)c(C(O)c4ccccc4)cc3c2N)cc1 (stereo not drawn) | 349 nM | 50700 nM
COc1ccc(-c2nnc(COc3ccc(NC(=O)Nc4ccc(Cl)c(C(F)(F)F)c4)cc3F)o2)cc1 | 2270 nM | 8600 nM
O=C(/C(=C/c1cccc([N+](=O)[O-])c1)c1ccccc1)c1ccccc1 | 2700 nM | 8800 nM
CCOC(=O)c1c(C)nc2c(c1N)/C(=C/c1ccc(OC)cc1)C(=O)N2Cc1ccc(F)cc1 | 194 nM | 650 nM
Cc1c2cc(O)c(=O)cc-2oc2cc(O)c(O)cc12 | > 100000 nM | > 100000 nM
Fc1ccc(-c2nn3ncccc3c2-c2ccnc(Nc3ccc4c(c3)OCCO4)n2)cc1 | 624 nM | 3240 nM
Cc1ccc(NC(=O)NCCCOc2ccc(N3C(N)=NC(N)=NC3(C)C)cc2Cl)cc1S(=O)(=O)F | 17300 nM | > 100000 nM
CCc1oc2ccccc2c1C(=O)c1cc(I)c(O)c(I)c1 | 2380 nM | 8500 nM
COC(=O)C12C3C4C1C1C2C3C41NC(=O)c1csc([C@@H](C[C@H](C(C)C)N(C)C(=O)[C@@H](NC(=O)[C@H]2CCCCN2C)C2CC2)OC(C)=O)n1 (stereo partly drawn) | 19.8 nM | 31500 nM
Nc1nc(-c2cccc(Cl)c2)c(-c2ccc3ncccc3n2)s1 | > 15700 nM | > 25000 nM
O=C(/C=C\n1cnc(-c2cc(C(F)(F)F)cc(C(F)(F)F)c2)n1)NNc1cnccn1 | 92.3 nM | 657 nM
C=C(C)C1CCC2(C(=O)O)CCC3(C)C(CCC4C5(C)CCC(OC(=O)NCc6ccccc6)C(C)(C)C5CCC43C)C12 (stereo not drawn) | 1730 nM | 34700 nM
C=C[C@H]1C[C@@H]2C[C@@H]3[C@H]4C/C=C\C(=O)NCCCC5NC(=O)C(=C(O)/C=C/[C@@H]4CC(=O)[C@H]3[C@@H]2[C@H]1C)C5=O (stereo partly drawn) | 1590 nM | 3090 nM
C=C1C(=O)O[C@H]2[C@H]1CC/C(COC(=O)c1cc3ccccc3s1)=C\CC[C@@]1(C)O[C@@H]21 | 1630 nM | 3950 nM
CN1CCN(c2ccc(Nc3nc(NCCCNS(=O)(=O)c4ccc(C(F)(F)F)cc4)c4sccc4n3)cc2)CC1 | 1730 nM | 3560 nM
Cc1ccc(C(=O)Nc2ccc(CN3CCN(C)CC3)c(C(F)(F)F)c2)cc1C#Cc1cnc(N)c2ccccc12 | 620 nM | 1640 nM
COc1cc(/C=C2\CCCC3=C2NC(C)=NC3c2cc(OC)c(OC)c(OC)c2)cc(OC)c1OC (stereo not drawn) | 1180 nM | 3910 nM
Cc1ccc2c3c(c(=O)[nH]c2c1)C1(C(C#N)=C(N)O3)c2cc(Br)ccc2-c2ccc(Br)cc21 | 1640 nM | 3550 nM
CC1(C)N=C(N)N=C(N)N1c1ccc(OCc2ccc(S(=O)(=O)F)c(Cl)c2)c(Cl)c1 | 2290 nM | > 100000 nM
COC(=O)c1c(C)[nH]c(/C=C2\N=C(c3ccc[nH]3)C=C2OC)c1C | 1200 nM | 2730 nM

Compound | GI50 | TGI
N#Cc1cccc(NC(=O)c2cc(-c3ccc(F)cc3F)ccc2O)c1 | 1660 nM and 1450 nM | 5940 nM and 6400 nM
O=C1/C(=C/c2ccc(O)cc2)CSc2ccc(Cl)cc21 | 4840 nM | 28000 nM
CC[C@H](C)[C@H]1O[C@]2(C=C[C@@H]1C)C[C@@H]1C[C@@H](C/C=C(\C)[C@@H](O[C@H]3C[C@H](OC)[C@@H](O[C@H]4C[C@H](OC)[C@@H](NC)[C@H](C)O4)[C@H](C)O3)[C@@H](C)/C=C/C=C3\CO[C@@H]4[C@H](O)C(C)=C[C@@H](C(=O)O1)[C@]34O)O2 | 1460 nM | 3170 nM
COC(=O)[C@H](Cc1c[nH]c2ccccc12)NC(=O)[C@@H](OC)[C@@H]1Cc2cc3cc(OC4CC(OC5CC(O)C(O)C(C)O5)C(O)C(C)O4)c(C)c(O)c3c(O)c2C(=O)[C@H]1OC1CC(OC2CC(OC3CC(C)(O)C(O)C(C)O3)C(O)C(C)O2)C(O)C(C)O1 (stereo partly drawn) | 3.21 nM | 11 nM
CC[CH2][Sn]([Cl])([Cl])[CH2]CC.Oc1ccccc1C=NCCN=Cc1ccccc1O | 1510 nM | 3270 nM
O=S1(=O)N(CCNc2nccc(-c3c(-c4cccc(O)c4)nc4sccn34)n2)CCN1Cc1ccccc1 | 8460 nM | 27900 nM
CCN(CC)CCCC(C)Nc1cnc(C(=O)Nc2cccc3ccc(OC)nc23)cn1 (stereo not drawn) | 1580 nM | 3190 nM
CCCCCN(CCCCC)CC(O)c1ccc(Cl)c2ccccc12 (stereo not drawn) | 11100 nM | 24000 nM
CCCn1cnc2c(c1=N)C(c1ccc(F)cc1)c1sc3c(C)cccc3c1O2 (stereo not drawn) | 1290 nM | 19200 nM
CC(C)(O)c1cncc(-c2ccc3ncc(C#N)c(N4CCc5cc(F)c(Cl)cc54)c3c2)c1 | 11800 nM | 30600 nM
COc1ccc(OC)c(C(=O)c2oc3ccc(Br)cc3c2N)c1 | 206 nM | 5220 nM
CC(C)(C)c1cc(NC(=O)Cc2ccc(-c3cnc4cc(-c5cnn(CCN6CCOCC6)c5)ccc4n3)cc2)no1 | 700 nM and 796 nM and 111 nM | 50000 nM and > 100000 nM and > 3000 nM
Cc1cc(O)c(C(C)(C)C)cc1Sc1cc(C(C)(C)C)c(O)cc1C | 2090 nM | 5120 nM
C/C(=N\Nc1ccc(Cl)cn1)c1ccccn1 | 65.5 nM | 293 nM
COc1ncc(-c2ccc3ncnc(Nc4cccc(Cl)c4)c3c2)cc1NS(=O)(=O)CCN1CCOCC1 | < 10 nM | 437 nM
Cn1c2ccccc2c2c3[nH]c(=O)[nH]c(=O)c3c3c4ccccc4n(C)c3c21 | 3510 nM | 29100 nM
COc1ccc2nc3cc(Cl)ccc3c(NCCN)c2c1 | 1840 nM | 3790 nM
CON(C)C(=O)N1N=C(c2cc(F)ccc2F)SC1(CCCN)c1ccccc1 (stereo not drawn) | < 10 nM | 1570 nM and 456 nM
COc1cc(NS(=O)(=O)c2ccc(-c3cnc(C4CC4)o3)cc2)ccc1F | 122 nM | 11300 nM
